Where “and” joins values, the source holds several entries; their conditions need not be identical. Identical values can stand only once. Toxic doses and inconclusive results are not listed.

For the test, the system named is CD2F1 mice, L1210 leukemia ip, survival T/C. Put plainly: NCI In Vivo Anticancer Drug Screen. Data for tumor model L1210 Leukemia (intraperitoneal) in CD2F1 (CDF1) mice. Particulars: higher = longer survival. Put shortly:
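Transplantable tumor in mice; compound-treated vs vehicle-treated groups. Read-out = treated/control ratio of the measured endpoint.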

The mark [1] stands for this setting: endpoint: mean survival time, dose: 100.0 mg/kg/injection, schedule: Q04DX003 (ip), vehicle: saline.
Where [2] appears, read: endpoint: mean survival time, dose: 200.0 mg/kg/injection, schedule: Q01DX009 (ip), vehicle: saline.
Where [3] appears, read: endpoint: mean survival time, dose: 100.0 mg/kg/injection, schedule: Q04DX002 (ip), vehicle: saline with Tween-80.
Setting [4] is: endpoint: mean survival time, dose: 200.0 mg/kg/injection, schedule: Q04DX002 (ip), vehicle: saline with Tween-80.
The mark [5] stands for this setting: endpoint: mean survival time, dose: 50.0 mg/kg/injection, schedule: Q01DX009 (ip), vehicle: saline with Tween-80.
The mark [6] stands for this setting: endpoint: mean survival time, dose: 25.0 mg/kg/injection, schedule: Q04DX003 (ip), vehicle: saline with Tween-80.
Setting [7] is: endpoint: mean survival time, dose: 50.0 mg/kg/injection, schedule: Q04DX003 (ip), vehicle: saline with Tween-80.
Where [8] appears, read: endpoint: mean survival time, dose: 100.0 mg/kg/injection, schedule: Q04DX003 (ip), vehicle: saline with Tween-80.

Regarding `Cc1cn(CC(=O)C2(O)CCC3C4CCC5=CC(=O)CCC5(C)C4C(=O)CC32C)c(=O)[nH]c1=O` (stereo unspecified), the T/C is 94 % of control (endpoint: mean survival time, dose: 12.5 mg/kg/injection, schedule: Q04DX003 (ip), vehicle: Klucel (hydroxypropylcellulose) (HPC)); 105 % of control (endpoint: mean survival time, dose: 25.0 mg/kg/injection, schedule: Q04DX003 (ip), vehicle: Klucel (hydroxypropylcellulose) (HPC)); 94 % of control (endpoint: mean survival time, dose: 50.0 mg/kg/injection, schedule: Q04DX003 (ip), vehicle: Klucel (hydroxypropylcellulose) (HPC)); 94 % of control (endpoint: mean survival time, dose: 100.0 mg/kg/injection, schedule: Q04DX003 (ip), vehicle: Klucel (hydroxypropylcellulose) (HPC)); 94 % of control (endpoint: mean survival time, dose: 200.0 mg/kg/injection, schedule: Q04DX003 (ip), vehicle: Klucel (hydroxypropylcellulose) (HPC)).

In the case of `Cc1nc(C(N)=O)c(=O)[nH]c1C`, the T/C runs as follows: (endpoint: mean survival time, dose: 25.0 mg/kg/injection, schedule: Q04DX003 (ip), vehicle: saline) 102 % of control; (endpoint: mean survival time, dose: 50.0 mg/kg/injection, schedule: Q04DX003 (ip), vehicle: saline) 107 % of control; (endpoint: mean survival time, dose: 100.0 mg/kg/injection, schedule: Q01DX009 (ip), vehicle: saline) 111 % of control; under setting [1], 101 % of control; under setting [2], 100 % of control; (endpoint: mean survival time, dose: 400.0 mg/kg/injection, schedule: Q01DX009 (ip), vehicle: saline) 97 % of control.

Consider `C/C(=N\NS(=O)(=O)c1ccc(C)cc1)c1ccccc1`, for which the T/C was 108 % of control under setting [3]; 96 % of control under setting [4]; 103 % of control (endpoint: mean survival time, dose: 400.0 mg/kg/injection, schedule: Q04DX002 (ip), vehicle: saline with Tween-80).

For `COC(=O)CCC(=O)c1ccccc1C`, the T/C is 100 % of control (endpoint: mean survival time, dose: 100.0 mg/kg/injection, schedule: Q04DX003 (ip), vehicle: acetone) and 100 % of control (endpoint: mean survival time, dose: 200.0 mg/kg/injection, schedule: Q04DX003 (ip), vehicle: acetone).

Take `O=C(Nc1ccc(C2=NCCN2)cc1)c1ccc(C(=O)Nc2ccc(C3=NCCN3)cc2)c(Cl)c1`: the T/C reads like this: (endpoint: mean survival time, dose: 0.78 mg/kg/injection, schedule: Q01DX009 (ip), vehicle: saline with Tween-80) 104 % of control; (endpoint: mean survival time, dose: 1.56 mg/kg/injection, schedule: Q01DX009 (ip), vehicle: saline with Tween-80) 104 % of control and 110 % of control and 114 % of control; (endpoint: mean survival time, dose: 2.5 mg/kg/injection, schedule: Q01DX009 (ip), vehicle: saline) 110 % of control; (endpoint: mean survival time, dose: 5.0 mg/kg/injection, schedule: Q01DX009 (ip), vehicle: saline) 110 % of control; (endpoint: mean survival time, dose: 8.0 mg/kg/injection, schedule: Q01DX008 (iv), vehicle: water) 104 % of control; (endpoint: mean survival time, dose: 12.5 mg/kg/injection, schedule: Q01DX009 (ip), vehicle: saline with Tween-80) 203 % of control. In addition, the T/C runs as follows: (endpoint: mean survival time, dose: 20.0 mg/kg/injection, schedule: Q01DX009 (ip), vehicle: saline) 179 % of control; (endpoint: mean survival time, dose: 25.0 mg/kg/injection, schedule: Q01DX009 (ip), vehicle: saline with Tween-80) 250 % of control; (endpoint: mean survival time, dose: 40.0 mg/kg/injection, schedule: Q01DX009 (ip), vehicle: saline) 234 % of control; under setting [5], 86 % of control and 92 % of control; (endpoint: median survival time, dose: 10.0 mg/kg/injection, schedule: Q04DX003 (ip), vehicle: saline with Tween-80) 113 % of control; (endpoint: median survival time, dose: 40.0 mg/kg/injection, schedule: Q04DX003 (ip), vehicle: saline with Tween-80) 162 % of control. Further, under “endpoint: median survival time, dose: 80.0 mg/kg/injection, schedule: Q04DX003 (ip), vehicle: saline with Tween-80”, the T/C was 228 % of control.

As to `CCOC(=O)C(CCC(O)C#N)(CC(C)=O)C(=O)OCC` (stereo unspecified), where the note is “endpoint: mean survival time, dose: 75.0 mg/kg/injection, schedule: Q01DX001 (ip), vehicle: saline”, the T/C is 100 % of control.

For the compound `CCOC(=O)C(=O)O`, the T/C under setting [2] is 104 % of control.

With `COc1ccc2cc[n+](C)c(Cc3ccc(OC)c(Oc4ccc(Cc5c(OC)ccc6cc[n+](C)cc56)cc4)c3)c2c1`, the T/C runs as follows: (endpoint: mean survival time, dose: 1.56 mg/kg/injection, schedule: Q04DX003 (ip), vehicle: other) 98 % of control; (endpoint: mean survival time, dose: 3.13 mg/kg/injection, schedule: Q04DX003 (ip), vehicle: other) 102 % of control; (endpoint: mean survival time, dose: 6.25 mg/kg/injection, schedule: Q04DX003 (ip), vehicle: other) 98 % of control and 103 % of control.

Consider `CC(=O)NC/C(C)=N/Nc1ccc([N+](=O)[O-])cc1[N+](=O)[O-]`, for which the T/C under setting [6] is 93 % of control, the T/C under setting [7] is 87 % of control and the T/C under setting [8] is 91 % of control.

Regarding `CCCCCCCCCCCCCCOc1ccc(Cl)cc1`, the T/C was 87 % of control under setting [3] and 87 % of control under setting [4].

Turning to `OC(c1ccccc1)(c1ccc(-c2ccccc2)cc1)C(O)(c1ccccc1)c1ccc(-c2ccccc2)cc1` (stereo unspecified), the T/C reads like this: under setting [6], 96 % of control; under setting [7], 90 % of control; under setting [8], 90 % of control and 100 % of control; (endpoint: mean survival time, dose: 200.0 mg/kg/injection, schedule: Q04DX003 (ip), vehicle: saline with Tween-80) 92 % of control; (endpoint: mean survival time, dose: 400.0 mg/kg/injection, schedule: Q04DX003 (ip), vehicle: saline with Tween-80) 92 % of control.

Regarding `COCCNP(=O)(OC(C)C)OC(C)C`, the T/C reads like this: under setting [1], 100 % of control; (endpoint: mean survival time, dose: 200.0 mg/kg/injection, schedule: Q04DX003 (ip), vehicle: saline) 97 % of control; (endpoint: mean survival time, dose: 400.0 mg/kg/injection, schedule: Q04DX003 (ip), vehicle: saline) 101 % of control.

In the case of `O=[N+]([O-])c1ccc(N(CCO)CCO)c2c1no[n+]2[O-]`, the T/C reads like this: (endpoint: median survival time, dose: 12.5 mg/kg/injection, schedule: Q01DX009 (ip), vehicle: saline with Tween-80) 114 % of control; (endpoint: median survival time, dose: 25.0 mg/kg/injection, schedule: Q01DX009 (ip), vehicle: saline with Tween-80) 111 % of control; (endpoint: median survival time, dose: 50.0 mg/kg/injection, schedule: Q01DX009 (ip), vehicle: saline with Tween-80) 114 % of control.

With `CCOC(=O)CCC(NC(=O)c1ccc(NCc2ccc3nc(N)nc(N)c3c2C)cc1)C(=O)OCC` (stereo unspecified), the T/C (endpoint: mean survival time, dose: 0.01 mg/kg/injection, schedule: Q01DX009 (ip), vehicle: saline + alcohol) was 104 % of control; the T/C (endpoint: mean survival time, dose: 0.02 mg/kg/injection, schedule: Q01DX009 (ip), vehicle: saline + alcohol) was 116 % of control; the T/C (endpoint: mean survival time, dose: 0.03 mg/kg/injection, schedule: Q01DX009 (ip), vehicle: saline + alcohol) was 113 % of control; the T/C (endpoint: mean survival time, dose: 0.06 mg/kg/injection, schedule: Q01DX001 (ip), vehicle: saline + alcohol) is 98 % of control and 101 % of control; the T/C (endpoint: mean survival time, dose: 0.06 mg/kg/injection, schedule: Q01DX009 (ip), vehicle: saline + alcohol) is 113 % of control; the T/C (endpoint: mean survival time, dose: 0.11 mg/kg/injection, schedule: Q01DX009 (ip), vehicle: saline + alcohol) was 110 % of control. The T/C is 112 % of control (endpoint: mean survival time, dose: 0.12 mg/kg/injection, schedule: Q01DX001 (ip), vehicle: saline + alcohol); 104 % of control (endpoint: mean survival time, dose: 0.13 mg/kg/injection, schedule: Q01DX001 (ip), vehicle: saline + alcohol); 121 % of control and 111 % of control (endpoint: mean survival time, dose: 0.25 mg/kg/injection, schedule: Q01DX001 (ip), vehicle: saline + alcohol); 122 % of control (endpoint: mean survival time, dose: 1.0 mg/kg/injection, schedule: Q01DX001 (ip), vehicle: saline + alcohol).

Regarding `OCC1OC(n2cnc3c2NC=N[C@@H]3CO)C(O)C1O` (stereo partly specified), the T/C was 100 % of control (endpoint: mean survival time, dose: 12.5 mg/kg/injection, schedule: Q01DX005 (ip), vehicle: water); 100 % of control (endpoint: mean survival time, dose: 25.0 mg/kg/injection, schedule: Q01DX005 (ip), vehicle: water); 104 % of control (endpoint: mean survival time, dose: 50.0 mg/kg/injection, schedule: Q01DX005 (ip), vehicle: water); 109 % of control (endpoint: mean survival time, dose: 100.0 mg/kg/injection, schedule: Q01DX005 (ip), vehicle: water); 111 % of control (endpoint: mean survival time, dose: 200.0 mg/kg/injection, schedule: Q01DX005 (ip), vehicle: water).

Regarding `COc1cccc(OC)c1OC(=O)Nc1c(Cl)cccc1Cl`, the T/C is, setting by setting: under setting [5], 96 % of control; (endpoint: mean survival time, dose: 100.0 mg/kg/injection, schedule: Q01DX009 (ip), vehicle: saline with Tween-80) 92 % of control; (endpoint: mean survival time, dose: 200.0 mg/kg/injection, schedule: Q01DX009 (ip), vehicle: saline with Tween-80) 105 % of control.

Take `CC(C)(C)CC(C)(C)c1ccc(Oc2ccc([N+](=O)[O-])cc2S(=O)(=O)O)cc1`: the T/C (endpoint: mean survival time, dose: 6.25 mg/kg/injection, schedule: Q04DX002 (ip), vehicle: saline with Tween-80) is 96 % of control; the T/C (endpoint: mean survival time, dose: 12.5 mg/kg/injection, schedule: Q04DX002 (ip), vehicle: saline with Tween-80) was 114 % of control; the T/C (endpoint: mean survival time, dose: 25.0 mg/kg/injection, schedule: Q04DX002 (ip), vehicle: saline with Tween-80) was 87 % of control and 93 % of control.

Source of the values: PubChem BioAssay AID256 (DTP/NCI, 2004).
